Read-outs that look alike come from different tables or passages of the source.
Experiments:
[1] = system: SARS-CoV-2; assay type: cell-based; details: Calu3 cells; formulations A-1 to A-6 (1,000 to 0 μg/ml condensation product); Camostat 100 μM or 10 μM as control
[2] = system: SARS-CoV-2; assay type: cell-based; details: precision cut human lung slices; 1, 10 or 100 μg/ml; water control

## CN(C)C(=O)COC(=O)Cc1ccc(OC(=O)c2ccc(NC(=N)N)cc2)cc1 [Camostat]
[1]
  viral titer: reduction observed
[2]
  viral titer: reduced the viral titer in a dose-dependent manner

Reference: patent US20240390413A1, “POLYMERS OBTAINED BY THE REACTION OF A PHENOLIC COMPOUND AND A CARBONYL COMPOUND AS ANTI-SARS-COV-2 AGENTS” (BASF SE, priority 2021, published 2024)
